Test results from patent US20240116985A1, “STAPLED PEPTIDES AND METHODS THEREOF” (priority 2020, published 2024).

Assay: CHI Log D procedure
Format: physicochemical
Settings: for chromatographic logD: pH 7.4, CHI Log D; for CHI Log D: pH 7.4

| SMILES | chromatographic logD | CHI Log D |
| --- | --- | --- |
| CC(=O)N1CCC[C@]12CC=CCCCC1(CCCC=CCCCCCC[C@@](C)(C(=O)N[C@@H](Cc3ccccc3)C(=O)N[C@@H](Cc3c[nH]c4ccccc34)C(=O)N[C@@H](CCC(N)=O)C(N)=O)NC(=O)[C@H](C(C)C)NC(=O)[C@H](Cc3ccccc3)NC(=O)[C@H](C)NC(=O)[C@H](C)NC(=O)[C@H](CCC(=O)O)NC(=O)[C@H](CC(=O)O)NC1=O)NC(=O)[C@H](C)NC(=O)[C@H](Cc1ccc(O)cc1)NC2=O (stereo partly drawn) [I-202, Ac-PL3-Tyr-Ala-B5-Asp-Glu-Ala-Ala-Phe-Val-S8-Phe-Trp-Gln-NH2] | 2.62 | – |
| CC(=O)N[C@@H](Cc1ccccc1)C(=O)N[C@@H](CC(=O)O)C(=O)N[C@@H](C)C(=O)N[C@]1(C)CCCCCCC=CCOC(=O)N2CC[C@@](C(=O)N[C@@H](Cc3ccccc3)C(=O)N[C@@H](Cc3c[nH]c4ccccc34)C(=O)N[C@@H](CCC(N)=O)C(N)=O)(C2)NC(=O)[C@H](C(C)C)NC(=O)[C@H](CCc2ccccc2)NC(=O)[C@H](C)NC(=O)[C@H](C)NC(=O)[C@H](CC(=O)O)NC(=O)[C@H](CC(=O)O)NC1=O (single isomer, unassigned) [I-117, Ac-Phe-Asp-Ala-R8-Asp-Asp-Ala-Ala-hPhe-Val-PyrS-Phe-Trp-Gln-NH2] | 1.33 | – |
| CC(=O)N[C@@H](Cc1ccccc1)C(=O)N[C@@H](CC(=O)O)C(=O)N[C@@H](C)C(=O)N[C@]1(C)CCCCCCC=CCOC(=O)N2CC[C@@](C(=O)N[C@@H](Cc3ccccc3)C(=O)N[C@@H](Cc3c[nH]c4ccccc34)C(=O)N[C@@H](CCC(N)=O)C(N)=O)(C2)NC(=O)[C@H](C(C)C)NC(=O)[C@H](Cc2cccnc2)NC(=O)[C@H](C)NC(=O)[C@H](C)NC(=O)[C@H](CC(=O)O)NC(=O)[C@H](CC(=O)O)NC1=O (single isomer, unassigned) [I-87, Ac-Phe-Asp-Ala-R8-Asp-Asp-Ala-Ala-3PyrA-Val-PyrS-Phe-Trp-Gln-NH2] | 1.15 | – |
| CC(=O)N[C@@H](Cc1ccccc1)C(=O)N[C@@H](CC(=O)O)C(=O)N[C@@H](C)C(=O)N[C@]1(C)CCCCCCC=CCOC(=O)N2CC[C@@](C(=O)N[C@@H](Cc3ccccc3)C(=O)N[C@@H](Cc3c[nH]c4ccccc34)C(=O)N[C@@H](CCC(N)=O)C(N)=O)(C2)NC(=O)[C@H](C(C)C)NC(=O)[C@H](Cc2cccc(C(N)=O)c2)NC(=O)[C@H](C)NC(=O)[C@H](C)NC(=O)[C@H](CC(=O)O)NC(=O)[C@H](CC(=O)O)NC1=O (single isomer, unassigned) [I-108, Ac-Phe-Asp-Ala-R8-Asp-Asp-Ala-Ala-3CBMF-Val-PyrS-Phe-Trp-Gln-NH2] | 1.15 | – |
| CC[C@H](C)[C@H](NC(=O)[C@H](CC(=O)O)NC(=O)[C@H](C)NC(C)=O)C(=O)N[C@]1(C)CCN(C)C(=O)OCC=CCCCCC[C@@](C)(C(=O)N[C@@H](Cc2ccccc2)C(=O)N[C@@H](Cc2c[nH]c3ccccc23)C(=O)N[C@@H](Cc2c[nH]cn2)C(N)=O)NC(=O)[C@H](CCC(N)=O)NC(=O)[C@H](Cc2ccccc2)NC(=O)[C@H](C)NC(=O)[C@H](C)NC(=O)[C@H](CC2CCCCC2)NC(=O)[C@H](CC(=O)O)NC1=O (single isomer, unassigned) [I-72, Ac-Ala-Asp-Ile-RdN-Asp-Cha-Ala-Ala-Phe-Gln-S7-Phe-Trp-His-NH2] | 1.72 | – |
| CC(=O)N[C@@H](Cc1ccccc1)C(=O)N[C@@H](CC(=O)O)C(=O)N[C@@H](C)C(=O)N[C@]1(C)CCCCCCC=CCOC(=O)N2CC[C@@](C(=O)N[C@@H](Cc3ccccn3)C(=O)N[C@@H](Cc3c[nH]c4ccccc34)C(=O)N[C@@H](CCC(N)=O)C(N)=O)(C2)NC(=O)[C@H](C(C)C)NC(=O)[C@H](Cc2ccccc2)NC(=O)[C@H](C)NC(=O)[C@H](C)NC(=O)[C@H](CC(=O)O)NC(=O)[C@H](CC(=O)O)NC1=O (single isomer, unassigned) [I-80, Ac-Phe-Asp-Ala-R8-Asp-Asp-Ala-Ala-Phe-Val-PyrS-2PyrA-Trp-Gln-NH2] | 1.04 | – |
| CC(=O)N[C@@H](Cc1ccccc1)C(=O)N[C@@H](CC(=O)O)C(=O)N[C@@H](C)C(=O)N[C@]1(C)CCCCCCC=CCOC(=O)N2CC[C@@](C(=O)N[C@@H](Cc3ccccc3)C(=O)N[C@@H](Cc3c[nH]c4ccccc34)C(=O)N[C@@H](CCC(N)=O)C(N)=O)(C2)NC(=O)[C@H](C(C)C)NC(=O)[C@H](Cc2ccccc2)NC(=O)[C@H](C)NC(=O)[C@H](C)NC(=O)[C@@](C)(Cc2ccccc2)NC(=O)[C@H](CC(=O)O)NC1=O (single isomer, unassigned) [I-57, Ac-Phe-Asp-Ala-R8-Asp-aMeDF-Ala-Ala-Phe-Val-PyrS-Phe-Trp-Gln-NH2] | – | 2.152 |
| CC(=O)N1CCC[C@]12CC=CCCCC1(CCCC=CCCCCCC[C@@](C)(C(=O)N[C@@H](Cc3c(F)c(F)c(F)c(F)c3F)C(=O)N[C@@H](Cc3c[nH]c4ccccc34)C(=O)N[C@@H](CCC(N)=O)C(N)=O)NC(=O)[C@H](C(C)C)NC(=O)[C@H](Cc3ccccc3)NC(=O)[C@H](C)NC(=O)[C@H](C)NC(=O)[C@H](CCC(=O)O)NC(=O)[C@H](CC(=O)O)NC1=O)NC(=O)[C@H](C)NC(=O)[C@H](CC(=O)O)NC2=O (stereo partly drawn) [I-183, Ac-PL3-Asp-Ala-B5-Asp-Glu-Ala-Ala-Phe-Val-S8-Pff-Trp-Gln-NH2] | 2.21 | – |
| CC(=O)N[C@@H](Cc1ccccc1)C(=O)N[C@@H](CC(=O)O)C(=O)N[C@@H](C)C(=O)N[C@]1(C)CCCCCCC=CCOC(=O)N2CC[C@@](C(=O)N[C@@H](Cc3ccncc3)C(=O)N[C@@H](Cc3c[nH]c4ccccc34)C(=O)N[C@@H](CCC(N)=O)C(N)=O)(C2)NC(=O)[C@H](C(C)C)NC(=O)[C@H](Cc2ccccc2)NC(=O)[C@H](C)NC(=O)[C@H](C)NC(=O)[C@H](CC(=O)O)NC(=O)[C@H](CC(=O)O)NC1=O (single isomer, unassigned) [I-84, Ac-Phe-Asp-Ala-R8-Asp-Asp-Ala-Ala-Phe-Val-PyrS-4PyrA-Trp-Gln-NH2] | 0.985 | – |
| CC(=O)N1CCC[C@]12CC=CCCCC1(CCCC=CCCCCCC[C@@](C)(C(=O)N[C@@H](Cc3ccccc3)C(=O)N[C@@H](Cc3csc4ccccc34)C(=O)N[C@@H](CCC(N)=O)C(N)=O)NC(=O)[C@H](C(C)C)NC(=O)[C@H](Cc3ccccc3)NC(=O)[C@H](C)NC(=O)[C@H](C)NC(=O)[C@H](Cc3ccc4ccccc4n3)NC(=O)[C@H](CC(=O)O)NC1=O)NC(=O)[C@H](C)NC(=O)[C@H](CC(=O)O)NC2=O (stereo partly drawn) [I-300, Ac-PL3-Asp-Ala-B5-Asp-Qui-Ala-Ala-Phe-Val-S8-Phe-BztA-Gln-NH2] | 2.82 | – |
| CC(=O)N[C@@H](Cc1ccccc1)C(=O)N[C@@H](CC(=O)O)C(=O)N[C@@H](C)C(=O)N[C@]1(C)CCCN(C)C(=O)OCC=CCCC[C@@](C)(C(=O)N[C@@H](Cc2ccccc2)C(=O)N[C@@H](Cc2c[nH]c3ccccc23)C(=O)N[C@@H](CCC(N)=O)C(N)=O)NC(=O)[C@H](C(C)C)NC(=O)[C@H](Cc2ccccc2)NC(=O)[C@H](C)NC(=O)[C@H](C)NC(=O)[C@H](CC(=O)O)NC(=O)[C@H](CC(=O)O)NC1=O [I-27, Ac-Phe-Asp-Ala-ReN-Asp-Asp-Ala-Ala-Phe-Val-S5-Phe-Trp-Gln-NH2] | 1.15 | – |
| CCCC[C@@H]1NC(=O)[C@H](CC(=O)O)NC(=O)C2(CCCC=CCCCCCC[C@@](C)(C(=O)N[C@@H](Cc3ccccc3)C(=O)N[C@@H](Cc3c[nH]c4ccccc34)C(=O)N[C@@H](CCC(N)=O)C(N)=O)NC(=O)[C@H](C(C)C)NC(=O)[C@H](Cc3ccccc3)NC(=O)[C@H](C)NC(=O)[C@H](C)NC1=O)CCCC=CC[C@]1(CCCN1C(C)=O)C(=O)N[C@@H](CC(=O)O)C(=O)N[C@@H](C)C(=O)N2 (single isomer, unassigned) [I-138, Ac-PL3-Asp-Ala-B5-Asp-nLeu-Ala-Ala-Phe-Val-S8-Phe-Trp-Gln-NH2] | 1.81 | – |
| COc1cccc(C[C@H](NC(=O)[C@]23CCN(C2)C(=O)OCC=CCCCCCC[C@@](C)(NC(=O)[C@H](C)NC(=O)[C@H](CC(=O)O)NC(=O)[C@H](Cc2ccccc2)NC(C)=O)C(=O)N[C@@H](CC(=O)O)C(=O)N[C@@H](CC(=O)O)C(=O)N[C@@H](C)C(=O)N[C@@H](C)C(=O)N[C@@H](Cc2ccccc2)C(=O)N[C@@H](C(C)C)C(=O)N3)C(=O)N[C@@H](Cc2c[nH]c3ccccc23)C(=O)N[C@@H](CCC(N)=O)C(N)=O)c1 (single isomer, unassigned) [I-102, Ac-Phe-Asp-Ala-R8-Asp-Asp-Ala-Ala-Phe-Val-PyrS-3OMeF-Trp-Gln-NH2] | – | 1.274 |
| CC(=O)N[C@@H](Cc1ccccc1)C(=O)N[C@@H](CC(=O)O)C(=O)N[C@@H](C)C(=O)N[C@]1(C)CCN(C)C(=O)OCC=CCC[C@@](C)(C(=O)N[C@@H](Cc2ccccc2)C(=O)N[C@@H](Cc2c[nH]c3ccccc23)C(=O)N[C@@H](CCC(N)=O)C(N)=O)NC(=O)[C@H](C(C)C)NC(=O)[C@H](Cc2ccccc2)NC(=O)[C@H](C)NC(=O)[C@H](C)NC(=O)[C@H](CC(=O)O)NC(=O)[C@H](CC(=O)O)NC1=O [I-42, Ac-Phe-Asp-Ala-RdN-Asp-Asp-Ala-Ala-Phe-Val-S4-Phe-Trp-Gln-NH2] | – | 1.09 |
| CC(=O)N[C@@H](Cc1ccccc1)C(=O)N[C@@H](CC(=O)O)C(=O)N[C@@H](C)C(=O)N[C@]1(C)CCCCCCC=CCOC(=O)N2CC[C@@](C(=O)N[C@@H](Cc3ccccc3)C(=O)N[C@@H](Cc3c[nH]c4ccccc34)C(=O)N[C@@H](CCC(N)=O)C(N)=O)(C2)NC(=O)[C@H](C(C)C)NC(=O)[C@H](Cc2ccccc2)NC(=O)[C@H](CCC(=O)O)NC(=O)[C@H](C)NC(=O)[C@H](CC(=O)O)NC(=O)[C@H](CC(=O)O)NC1=O (single isomer, unassigned) [I-22, Ac-Phe-Asp-Ala-R8-Asp-Asp-Ala-Glu-Phe-Val-PyrS-Phe-Trp-Gln-NH2] | – | 0.911 |
| CC(=O)N[C@@H](Cc1ccccc1)C(=O)N[C@@H](CC(=O)O)C(=O)N[C@@H](C)C(=O)N[C@]1(C)CCN(C)C(=O)OCC=CCC[C@@](C)(C(=O)N[C@@H](Cc2ccccc2)C(=O)N[C@@H](Cc2c[nH]c3ccccc23)C(=O)N[C@@H](CCC(N)=O)C(N)=O)NC(=O)[C@H](C(C)C)NC(=O)[C@H](Cc2ccccc2)NC(=O)[C@H](C)NC(=O)[C@H](C)NC(=O)[C@H](CC(=O)O)NC(=O)[C@H](CC(=O)O)NC1=O (single isomer, unassigned) [I-41, Ac-Phe-Asp-Ala-RdN-Asp-Asp-Ala-Ala-Phe-Val-S4-Phe-Trp-Gln-NH2] | 1.09 | – |
